In the kinase profiling compilation of Christmann-Franck et al. (2016):

Tests used:
Assay in all cases: radiometric filter-binding kinase assay, Kinase HotSpot
Settings in all cases: compound 0.5 µM; ATP 10 µM
MAPK12 (human) = MAPK12 (human) (UniProt P53778)
DDR2 (human) = DDR2 (human) (UniProt Q16832)
OXSR1 (human) = OXSR1 (human) (UniProt O95747)
CAMK4 (human) = CAMK4 (human) (UniProt Q16566)
DAPK1 (human) = DAPK1 (human) (UniProt P53355)
MERTK (human) = MERTK (human) (UniProt Q12866)
CHUK (human) = CHUK (human) (UniProt O15111)
ACVRL1 (human) = ACVRL1 (human) (UniProt P37023)
ACVRL1 (human), sequence (P37023 whole entry, looked up): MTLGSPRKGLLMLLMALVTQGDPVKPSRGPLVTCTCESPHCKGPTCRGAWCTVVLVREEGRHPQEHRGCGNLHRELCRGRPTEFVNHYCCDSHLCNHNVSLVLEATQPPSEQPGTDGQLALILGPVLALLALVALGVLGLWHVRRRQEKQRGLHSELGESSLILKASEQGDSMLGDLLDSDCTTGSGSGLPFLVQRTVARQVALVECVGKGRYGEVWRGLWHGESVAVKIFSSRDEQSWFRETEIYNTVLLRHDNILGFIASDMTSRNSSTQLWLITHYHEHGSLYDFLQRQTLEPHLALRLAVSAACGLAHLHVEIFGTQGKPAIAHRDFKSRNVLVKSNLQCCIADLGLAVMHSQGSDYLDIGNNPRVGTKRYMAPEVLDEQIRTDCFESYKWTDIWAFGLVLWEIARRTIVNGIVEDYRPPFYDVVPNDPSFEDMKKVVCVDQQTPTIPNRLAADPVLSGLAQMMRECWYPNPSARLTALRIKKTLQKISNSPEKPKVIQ

NEK4 (human) = NEK4 (human) (UniProt P51957)
MUSK (human) = MUSK (human) (UniProt O15146)
LIMK1 (human) = LIMK1 (human) (UniProt P53667)
CSNK1G1 (human) = CSNK1G1 (human) (UniProt Q9HCP0)
TAOK3 (human) = TAOK3 (human) (UniProt Q9H2K8)
TAOK3 (human), sequence (Q9H2K8 whole entry, looked up): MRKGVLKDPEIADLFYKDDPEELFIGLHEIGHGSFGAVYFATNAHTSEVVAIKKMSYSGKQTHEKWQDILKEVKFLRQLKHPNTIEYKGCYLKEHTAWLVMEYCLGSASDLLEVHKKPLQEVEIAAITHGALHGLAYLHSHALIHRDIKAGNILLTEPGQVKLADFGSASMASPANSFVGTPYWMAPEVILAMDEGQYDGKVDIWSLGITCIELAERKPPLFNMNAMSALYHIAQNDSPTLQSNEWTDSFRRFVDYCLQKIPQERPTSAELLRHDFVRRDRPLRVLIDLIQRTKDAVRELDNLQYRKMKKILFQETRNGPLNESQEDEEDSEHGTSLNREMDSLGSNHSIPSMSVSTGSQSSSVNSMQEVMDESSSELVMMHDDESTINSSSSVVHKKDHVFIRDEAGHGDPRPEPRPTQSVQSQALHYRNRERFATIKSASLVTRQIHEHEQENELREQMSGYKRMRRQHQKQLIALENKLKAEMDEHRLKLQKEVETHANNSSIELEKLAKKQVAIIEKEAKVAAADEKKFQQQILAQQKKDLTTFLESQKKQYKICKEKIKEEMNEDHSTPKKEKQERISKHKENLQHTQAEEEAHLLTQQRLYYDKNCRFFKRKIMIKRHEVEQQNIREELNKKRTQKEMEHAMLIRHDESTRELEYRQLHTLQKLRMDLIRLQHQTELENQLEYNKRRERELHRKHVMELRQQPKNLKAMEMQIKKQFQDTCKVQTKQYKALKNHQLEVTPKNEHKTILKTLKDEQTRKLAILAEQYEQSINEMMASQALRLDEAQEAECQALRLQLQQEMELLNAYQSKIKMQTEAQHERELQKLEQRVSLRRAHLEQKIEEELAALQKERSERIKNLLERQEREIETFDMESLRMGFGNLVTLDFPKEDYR

DYRK1A (human) = DYRK1A (human) (UniProt Q13627)
STK33 (human) = STK33 (human) (UniProt Q9BYT3)
PRKG2 (human) = PRKG2 (human) (UniProt Q13237)
GSK3B (human) = GSK3B (human) (UniProt P49841)
MAPK13 (human) = MAPK13 (human) (UniProt O15264)
MAPK13 (human), sequence (O15264 whole entry, looked up): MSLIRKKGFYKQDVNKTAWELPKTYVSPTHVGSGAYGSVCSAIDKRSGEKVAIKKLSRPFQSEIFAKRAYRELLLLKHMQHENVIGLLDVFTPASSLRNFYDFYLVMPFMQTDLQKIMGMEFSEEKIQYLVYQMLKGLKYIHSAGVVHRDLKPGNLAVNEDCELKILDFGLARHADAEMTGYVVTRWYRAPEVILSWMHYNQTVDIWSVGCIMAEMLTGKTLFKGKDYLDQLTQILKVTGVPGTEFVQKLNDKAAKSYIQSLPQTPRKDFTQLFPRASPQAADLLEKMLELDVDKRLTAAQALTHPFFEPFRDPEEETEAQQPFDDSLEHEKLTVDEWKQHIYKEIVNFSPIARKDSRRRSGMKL

TSSK1B (human) = TSSK1B (human) (UniProt Q9BXA7)
TSSK1B (human), sequence (Q9BXA7 whole entry, looked up): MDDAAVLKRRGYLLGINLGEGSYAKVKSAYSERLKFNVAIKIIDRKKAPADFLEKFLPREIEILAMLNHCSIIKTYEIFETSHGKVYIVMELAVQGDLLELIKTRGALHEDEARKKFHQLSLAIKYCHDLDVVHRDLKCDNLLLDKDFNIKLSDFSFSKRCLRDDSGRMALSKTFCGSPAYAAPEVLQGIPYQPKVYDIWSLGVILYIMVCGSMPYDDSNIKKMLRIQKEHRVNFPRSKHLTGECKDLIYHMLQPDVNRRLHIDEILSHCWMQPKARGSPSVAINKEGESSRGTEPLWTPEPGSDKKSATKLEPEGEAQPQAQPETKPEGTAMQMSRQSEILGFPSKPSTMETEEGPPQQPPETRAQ

CSNK2A2 (human) = CSNK2A2 (human) (UniProt P19784)
NTRK3 (human) = NTRK3 (human) (UniProt Q16288)
AXL (human) = AXL (human) (UniProt P30530)
GRK6 (human) = GRK6 (human) (UniProt P43250)
MARK3 (human) = MARK3 (human) (UniProt P27448)
IRAK1 (human) = IRAK1 (human) (UniProt P51617)
DYRK2 (human) = DYRK2 (human) (UniProt Q92630)
WNK3 (human) = WNK3 (human) (UniProt Q9BYP7)
FYN (human) = FYN (human) (UniProt P06241)
NTRK2 (human) = NTRK2 (human) (UniProt Q16620)
NTRK2 (human), sequence (Q16620 whole entry, looked up): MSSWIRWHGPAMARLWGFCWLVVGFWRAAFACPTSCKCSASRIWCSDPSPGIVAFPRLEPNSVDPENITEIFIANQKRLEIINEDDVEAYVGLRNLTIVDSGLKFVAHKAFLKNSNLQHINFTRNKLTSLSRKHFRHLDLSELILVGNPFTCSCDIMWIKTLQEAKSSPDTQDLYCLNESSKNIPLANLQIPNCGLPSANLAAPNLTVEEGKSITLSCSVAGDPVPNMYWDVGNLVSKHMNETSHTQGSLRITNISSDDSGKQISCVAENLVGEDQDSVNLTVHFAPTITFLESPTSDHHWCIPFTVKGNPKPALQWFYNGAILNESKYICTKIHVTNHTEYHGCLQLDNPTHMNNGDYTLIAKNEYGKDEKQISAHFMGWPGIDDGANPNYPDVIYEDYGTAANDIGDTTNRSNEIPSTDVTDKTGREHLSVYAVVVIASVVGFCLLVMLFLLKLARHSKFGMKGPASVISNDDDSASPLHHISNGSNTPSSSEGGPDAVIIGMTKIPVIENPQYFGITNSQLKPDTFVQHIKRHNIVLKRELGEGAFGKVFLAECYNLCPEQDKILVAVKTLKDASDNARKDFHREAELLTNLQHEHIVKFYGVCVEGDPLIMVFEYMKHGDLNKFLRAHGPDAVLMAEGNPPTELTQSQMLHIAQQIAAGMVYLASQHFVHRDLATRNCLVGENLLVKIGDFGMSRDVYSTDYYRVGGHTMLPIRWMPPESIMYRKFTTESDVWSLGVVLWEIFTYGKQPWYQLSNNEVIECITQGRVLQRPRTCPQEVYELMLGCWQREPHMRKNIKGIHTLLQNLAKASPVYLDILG

CDK9 CCNK (human) = CDK9 CCNK (human) (UniProt O75909+P50750)
PHKG2 (human) = PHKG2 (human) (UniProt P15735)
HCK (human) = HCK (human) (UniProt P08631)
MARK2 (human) = MARK2 (human) (UniProt Q7KZI7)
AKT3 (human) = AKT3 (human) (UniProt Q9Y243)
RPS6KA4 KD2 (human) = RPS6KA4 KD2 (human) (UniProt O75676)
CSNK1D (human) = CSNK1D (human) (UniProt P48730)
JAK2 JH1 JH2 (human) = JAK2 JH1 JH2 (human) (UniProt O60674)
MAPKAPK3 (human) = MAPKAPK3 (human) (UniProt Q16644)
TAOK2 (human) = TAOK2 (human) (UniProt Q9UL54)
TAOK2 (human), sequence (Q9UL54 whole entry, looked up): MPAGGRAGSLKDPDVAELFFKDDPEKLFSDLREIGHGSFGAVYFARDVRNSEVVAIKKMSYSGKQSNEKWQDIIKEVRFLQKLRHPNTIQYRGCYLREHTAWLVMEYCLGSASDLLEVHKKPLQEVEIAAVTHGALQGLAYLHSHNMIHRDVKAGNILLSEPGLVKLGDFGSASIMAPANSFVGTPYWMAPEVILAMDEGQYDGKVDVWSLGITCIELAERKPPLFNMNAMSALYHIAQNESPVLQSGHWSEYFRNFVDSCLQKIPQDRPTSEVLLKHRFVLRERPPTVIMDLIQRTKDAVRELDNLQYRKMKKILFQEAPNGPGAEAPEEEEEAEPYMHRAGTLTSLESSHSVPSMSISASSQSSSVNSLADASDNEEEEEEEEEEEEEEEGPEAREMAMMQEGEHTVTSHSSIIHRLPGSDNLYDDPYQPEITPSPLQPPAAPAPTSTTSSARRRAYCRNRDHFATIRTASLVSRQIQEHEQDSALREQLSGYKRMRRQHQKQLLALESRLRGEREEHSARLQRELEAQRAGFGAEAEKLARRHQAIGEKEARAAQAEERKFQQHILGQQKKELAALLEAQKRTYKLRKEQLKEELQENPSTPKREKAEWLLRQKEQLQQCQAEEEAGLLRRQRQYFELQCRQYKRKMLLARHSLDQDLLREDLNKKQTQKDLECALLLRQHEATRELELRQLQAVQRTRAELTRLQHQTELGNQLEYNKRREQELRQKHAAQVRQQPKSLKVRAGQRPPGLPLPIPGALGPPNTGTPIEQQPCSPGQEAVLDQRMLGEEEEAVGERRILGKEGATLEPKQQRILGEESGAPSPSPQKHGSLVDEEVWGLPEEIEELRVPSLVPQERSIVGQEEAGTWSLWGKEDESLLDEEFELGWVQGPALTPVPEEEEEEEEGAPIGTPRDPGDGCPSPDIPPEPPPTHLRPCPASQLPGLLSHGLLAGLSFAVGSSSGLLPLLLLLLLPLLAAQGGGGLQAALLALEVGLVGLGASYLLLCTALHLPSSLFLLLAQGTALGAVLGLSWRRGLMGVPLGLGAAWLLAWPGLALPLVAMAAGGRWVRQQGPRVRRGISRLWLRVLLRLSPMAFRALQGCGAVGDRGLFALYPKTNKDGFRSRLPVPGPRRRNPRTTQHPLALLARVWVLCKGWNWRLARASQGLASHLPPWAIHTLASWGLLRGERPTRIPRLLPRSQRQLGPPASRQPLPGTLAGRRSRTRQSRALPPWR

WEE1 (human) = WEE1 (human) (UniProt P30291)
PTK2B (human) = PTK2B (human) (UniProt Q14289)
DSTYK (human) = DSTYK (human) (UniProt Q6XUX3)

DDR2 (human), sequence (Q16832 whole entry, looked up): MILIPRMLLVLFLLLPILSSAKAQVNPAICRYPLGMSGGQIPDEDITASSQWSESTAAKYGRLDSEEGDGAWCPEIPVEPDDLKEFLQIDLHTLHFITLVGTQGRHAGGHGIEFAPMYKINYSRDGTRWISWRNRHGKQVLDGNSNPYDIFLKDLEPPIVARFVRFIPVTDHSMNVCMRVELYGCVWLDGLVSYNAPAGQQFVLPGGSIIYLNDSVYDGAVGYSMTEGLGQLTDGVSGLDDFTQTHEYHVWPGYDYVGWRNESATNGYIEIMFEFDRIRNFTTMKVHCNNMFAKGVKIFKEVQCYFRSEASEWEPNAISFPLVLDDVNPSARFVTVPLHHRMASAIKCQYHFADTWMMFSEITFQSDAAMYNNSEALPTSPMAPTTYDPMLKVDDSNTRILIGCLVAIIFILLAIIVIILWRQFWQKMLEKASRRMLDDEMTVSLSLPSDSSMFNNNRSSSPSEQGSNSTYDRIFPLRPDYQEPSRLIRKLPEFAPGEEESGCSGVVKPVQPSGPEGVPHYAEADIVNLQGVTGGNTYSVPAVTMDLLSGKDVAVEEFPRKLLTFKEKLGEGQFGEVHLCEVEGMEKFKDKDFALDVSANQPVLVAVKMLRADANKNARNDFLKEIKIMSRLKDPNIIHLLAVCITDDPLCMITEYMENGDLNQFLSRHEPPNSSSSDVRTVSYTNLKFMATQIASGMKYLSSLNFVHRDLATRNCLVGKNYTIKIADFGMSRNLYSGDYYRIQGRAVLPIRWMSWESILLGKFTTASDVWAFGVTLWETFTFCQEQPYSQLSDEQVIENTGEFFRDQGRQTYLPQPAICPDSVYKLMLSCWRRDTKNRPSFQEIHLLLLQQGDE

CC(C)(C)c1cc(C=C(C#N)C#N)cc(Br)c1O
residual activity (MAPK12 (human)): 102%
residual activity (DDR2 (human)): 105%
residual activity (OXSR1 (human)): 98%
residual activity (CAMK4 (human)): 94.2%
residual activity (DAPK1 (human)): 85.9%
residual activity (MERTK (human)): 97.3%
residual activity (CHUK (human)): 89.7%
residual activity (ACVRL1 (human)): 105%
residual activity (NEK4 (human)): 93.7%
residual activity (MUSK (human)): 103%
residual activity (LIMK1 (human)): 98.5%
residual activity (CSNK1G1 (human)): 106%
residual activity (TAOK3 (human)): 122%
residual activity (DYRK1A (human)): 95.4%
residual activity (STK33 (human)): 91.1%
residual activity (PRKG2 (human)): 87.6%
residual activity (GSK3B (human)): 107%
residual activity (MAPK13 (human)): 98.5%
residual activity (TSSK1B (human)): 95.6%
residual activity (CSNK2A2 (human)): 94.5%
residual activity (NTRK3 (human)): 104%
residual activity (AXL (human)): 103%
residual activity (GRK6 (human)): 94.6%
residual activity (MARK3 (human)): 105%
residual activity (IRAK1 (human)): 105%
residual activity (DYRK2 (human)): 104%
residual activity (WNK3 (human)): 106%
residual activity (FYN (human)): 67.2%
residual activity (NTRK2 (human)): 90.9%
residual activity (CDK9 CCNK (human)): 109%
residual activity (PHKG2 (human)): 106%
residual activity (HCK (human)): 66.1%
residual activity (MARK2 (human)): 81.6%
residual activity (AKT3 (human)): 111%
residual activity (RPS6KA4 KD2 (human)): 90.9%
residual activity (CSNK1D (human)): 85.5%
residual activity (JAK2 JH1 JH2 (human)): 107%
residual activity (MAPKAPK3 (human)): 103%
residual activity (TAOK2 (human)): 96.5%
residual activity (WEE1 (human)): 90.9%
residual activity (PTK2B (human)): 99.3%
residual activity (DSTYK (human)): 105%

N#C/C(=C\c1ccc(O)c(O)c1)C(=O)NCc1ccccc1
residual activity (MAPK12 (human)): 94.2%
residual activity (DDR2 (human)): 97.2%
residual activity (OXSR1 (human)): 101%
residual activity (CAMK4 (human)): 97%
residual activity (DAPK1 (human)): 99.7%
residual activity (MERTK (human)): 89%
residual activity (CHUK (human)): 103%
residual activity (ACVRL1 (human)): 106%
residual activity (NEK4 (human)): 98.6%
residual activity (MUSK (human)): 97.9%
residual activity (LIMK1 (human)): 97%
residual activity (CSNK1G1 (human)): 102%
residual activity (TAOK3 (human)): 103%
residual activity (DYRK1A (human)): 102%
residual activity (STK33 (human)): 94.9%
residual activity (PRKG2 (human)): 98.6%
residual activity (GSK3B (human)): 106%
residual activity (MAPK13 (human)): 101%
residual activity (TSSK1B (human)): 90.2%
residual activity (CSNK2A2 (human)): 81.9%
residual activity (NTRK3 (human)): 98.8%
residual activity (AXL (human)): 95.1%
residual activity (GRK6 (human)): 101%
residual activity (MARK3 (human)): 97.5%
residual activity (IRAK1 (human)): 154%
residual activity (DYRK2 (human)): 103%
residual activity (WNK3 (human)): 95%
residual activity (FYN (human)): 116%
residual activity (NTRK2 (human)): 94.5%
residual activity (CDK9 CCNK (human)): 102%
residual activity (PHKG2 (human)): 96%
residual activity (HCK (human)): 97.5%
residual activity (MARK2 (human)): 88.2%
residual activity (AKT3 (human)): 90.8%
residual activity (RPS6KA4 KD2 (human)): 94.2%
residual activity (CSNK1D (human)): 98.3%
residual activity (JAK2 JH1 JH2 (human)): 98.1%
residual activity (MAPKAPK3 (human)): 102%
residual activity (TAOK2 (human)): 95.7%
residual activity (WEE1 (human)): 89.9%
residual activity (PTK2B (human)): 92.6%
residual activity (DSTYK (human)): 91%
